test: recombinant barcode read abundance after kanamycin selection (control-corrected) (log10(CPM+1)); higher = more efficient recombination; sequences stand for … in AGTGCAGAGAAAATCGGCCAGTTTTCTCTGCCTGCAGTCCGCATGCCGT…ATTTATGCAGCGGACTGCCTTTCTCCCAAAGTGATAAACCGGACAGTATCATGGACCGGTTTTCCCGGTAATCCGTATTTGCAAGGTTGGTTTCACT; site = the 11-nt target
Procedure, shortened: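 Recombination efficiency comes from barcode counts at recombinant junctions, converted to counts per million, averaged and corrected against the control. Values appear as log10(CPM+1). They were obtained from a pooled E. coli screen in which each oligo paired a target with an IS621 bridge RNA target-binding loop, and cells were plated in duplicate on chloramphenicol/ampicillin LB agar or on chloramphenicol/ampicillin/kanamycin with 0.1 mM IPTG.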

Row | Sequence | recombinant barcode read abundance (log10)
1 | TAAGAATTGTGGGTTCTAACCTGTTGCCTCA [TAAGAATCTAG_LTGcore_TG_RTGcore_TG] (site TAAGAATCTAG) (LTG core: TG, RTG core: TG) | 0.0917
2 | GGTGCCCGGTGGGTTCTAACCTGTTGCCGCC [GGTGCCCCTCG_LTGcore_GG_RTGcore_GG] (site GGTGCCCCTCG) (LTG core: GG, RTG core: GG) | 0.0147
3 | TAAGAATCTTGGGTTCTAACCTGTTGCCTGT [TAAGAATCTAG_LTGcore_CT_RTGcore_AC] (site TAAGAATCTAG) (LTG core: CT, RTG core: AC) | 0.0874
4 | AAACATGACTGGGTTCTAACCTGTTGCCTAG [AAACATGCTAG_LTGcore_AC_RTGcore_CT] (site AAACATGCTAG) (LTG core: AC, RTG core: CT) | 0.0862
5 | GGTGCCCCTTGGGTTCTAACCTGTTGCCGGC [GGTGCCCCTCG_LTGcore_CT_RTGcore_GC] (site GGTGCCCCTCG) (LTG core: CT, RTG core: GC) | 0.83
6 | AAACACATTTGGGTTCTAACCTGTTGCCTAG [AAACACACTAG_LTGcore_TT_RTGcore_CT] (site AAACACACTAG) (LTG core: TT, RTG core: CT) | 0.0289
7 | GGACACCACTGGGTTCTAACCTGTTGCCTGT [GGACACCCTAG_LTGcore_AC_RTGcore_AC] (site GGACACCCTAG) (LTG core: AC, RTG core: AC) | 0.54
8 | GCGGGACCTTGGGTTCTAACCTGTTGCCTGA [GCGGGACCTAG_LTGcore_CT_RTGcore_TC] (site GCGGGACCTAG) (LTG core: CT, RTG core: TC) | 0.0737
9 | GGGCGTGTTTGGGTTCTAACCTGTTGCCTAG [GGGCGTGCTAG_LTGcore_TT_RTGcore_CT] (site GGGCGTGCTAG) (LTG core: TT, RTG core: CT) | 0.0908
10 | CGGTCCCTCTGGGTTCTAACCTGTTGCCAAG [CGGTCCCCTTG_LTGcore_TC_RTGcore_CT] (site CGGTCCCCTTG) (LTG core: TC, RTG core: CT) | 0.355
11 | TGATACCGATGGGTTCTAACCTGTTGCGTTC [TGATACCCTAC_LTGcore_GA_RTGcore_GA] (site TGATACCCTAC) (LTG core: GA, RTG core: GA) | 0.269
12 | AAACACACTTGGGTTCTAACCTGTTGCCTGT [AAACACACTAG_LTGcore_CT_RTGcore_AC] (site AAACACACTAG) (LTG core: CT, RTG core: AC) | 0.639
13 | AAACACACTTGGGTTCTAACCTGTTGCCTTT [AAACACACTAG_LTGcore_CT_RTGcore_AA] (site AAACACACTAG) (LTG core: CT, RTG core: AA) | 0.938
14 | GTCGCCCGCTGGGTTCTAACCTGTTGCTAGC [GTCGCCCCTTA_LTGcore_GC_RTGcore_GC] (site GTCGCCCCTTA) (LTG core: GC, RTG core: GC) | 0.459
15 | ATGTCCCTGTGGGTTCTAACCTGTTGCTCAG [ATGTCCCCTGA_LTGcore_TG_RTGcore_CT] (site ATGTCCCCTGA) (LTG core: TG, RTG core: CT) | 0.0616
16 | GGCTCCCCTTGGGTTCTAACCTGTTGCGGAA [GGCTCCCCTCC_LTGcore_CT_RTGcore_TT] (site GGCTCCCCTCC) (LTG core: CT, RTG core: TT) | 0.164
17 | GGGCGTGGATGGGTTCTAACCTGTTGCCTAG [GGGCGTGCTAG_LTGcore_GA_RTGcore_CT] (site GGGCGTGCTAG) (LTG core: GA, RTG core: CT) | 0.0898
18 | ATGCTTTATTGGGTTCTAACCTGTTGCCTAG [ATGCTTTCTAG_LTGcore_AT_RTGcore_CT] (site ATGCTTTCTAG) (LTG core: AT, RTG core: CT) | 0.162
19 | GGGCGTGCCTGGGTTCTAACCTGTTGCCTAG [GGGCGTGCTAG_LTGcore_CC_RTGcore_CT] (site GGGCGTGCTAG) (LTG core: CC, RTG core: CT) | 0.255
20 | GAGGCCTCTTGGGTTCTAACCTGTTGCCAAA [GAGGCCTCTTG_LTGcore_CT_RTGcore_TT] (site GAGGCCTCTTG) (LTG core: CT, RTG core: TT) | 0.822
21 | TTATAAATCTGGGTTCTAACCTGTTGCCTAG [TTATAAACTAG_LTGcore_TC_RTGcore_CT] (site TTATAAACTAG) (LTG core: TC, RTG core: CT) | 0.235
22 | ATGTCCCGGTGGGTTCTAACCTGTTGCTCAG [ATGTCCCCTGA_LTGcore_GG_RTGcore_CT] (site ATGTCCCCTGA) (LTG core: GG, RTG core: CT) | 0.294
23 | TAAGAATCATGGGTTCTAACCTGTTGCCTAG [TAAGAATCTAG_LTGcore_CA_RTGcore_CT] (site TAAGAATCTAG) (LTG core: CA, RTG core: CT) | 0.838

Row | Sequence | recombinant barcode read abundance (log10)
24 | ATGTCCCCTTGGGTTCTAACCTGTTGCTCGC [ATGTCCCCTGA_LTGcore_CT_RTGcore_GC] (site ATGTCCCCTGA) (LTG core: CT, RTG core: GC) | 0.327
25 | GCGGGACTGTGGGTTCTAACCTGTTGCCTAG [GCGGGACCTAG_LTGcore_TG_RTGcore_CT] (site GCGGGACCTAG) (LTG core: TG, RTG core: CT) | 0.316
26 | GAGTCCACTTGGGTTCTAACCTGTTGCGTCT [GAGTCCACTAC_LTGcore_CT_RTGcore_AG] (site GAGTCCACTAC) (LTG core: CT, RTG core: AG) | 0
27 | CATATTACTTGGGTTCTAACCTGTTGCCTTA [CATATTACTAG_LTGcore_CT_RTGcore_TA] (site CATATTACTAG) (LTG core: CT, RTG core: TA) | 0.12
28 | AAACATGGCTGGGTTCTAACCTGTTGCCTAG [AAACATGCTAG_LTGcore_GC_RTGcore_CT] (site AAACATGCTAG) (LTG core: GC, RTG core: CT) | 0.349
29 | GGGCGGACTTGGGTTCTAACCTGTTGCGGAC [GGGCGGACTCC_LTGcore_CT_RTGcore_GT] (site GGGCGGACTCC) (LTG core: CT, RTG core: GT) | 0.135
30 | TAAGAATCTTGGGTTCTAACCTGTTGCCTCA [TAAGAATCTAG_LTGcore_CT_RTGcore_TG] (site TAAGAATCTAG) (LTG core: CT, RTG core: TG) | 0.343
31 | GGACACCCTTGGGTTCTAACCTGTTGCCTGA [GGACACCCTAG_LTGcore_CT_RTGcore_TC] (site GGACACCCTAG) (LTG core: CT, RTG core: TC) | 1.89
32 | GAGGCCTTTTGGGTTCTAACCTGTTGCCAAG [GAGGCCTCTTG_LTGcore_TT_RTGcore_CT] (site GAGGCCTCTTG) (LTG core: TT, RTG core: CT) | 0.0682
33 | TCGCGACATTGGGTTCTAACCTGTTGCCGAT [TCGCGACCTCG_LTGcore_AT_RTGcore_AT] (site TCGCGACCTCG) (LTG core: AT, RTG core: AT) | 0.205
34 | GTCGCCCAATGGGTTCTAACCTGTTGCTAAG [GTCGCCCCTTA_LTGcore_AA_RTGcore_CT] (site GTCGCCCCTTA) (LTG core: AA, RTG core: CT) | 0.688
35 | GCGCGACAGTGGGTTCTAACCTGTTGCTTCT [GCGCGACCTAA_LTGcore_AG_RTGcore_AG] (site GCGCGACCTAA) (LTG core: AG, RTG core: AG) | 0.313
36 | CGCGCCCCTTGGGTTCTAACCTGTTGCGGAG [CGCGCCCCTCC_LTGcore_CT_RTGcore_CT] (site CGCGCCCCTCC) (LTG core: CT, RTG core: CT) | 0.131
37 | ATGTCCCTGTGGGTTCTAACCTGTTGCTCCA [ATGTCCCCTGA_LTGcore_TG_RTGcore_TG] (site ATGTCCCCTGA) (LTG core: TG, RTG core: TG) | 0.0547
38 | ACGGGACTCTGGGTTCTAACCTGTTGCAGAG [ACGGGACCTCT_LTGcore_TC_RTGcore_CT] (site ACGGGACCTCT) (LTG core: TC, RTG core: CT) | 0.0751
39 | GTCGCCCCATGGGTTCTAACCTGTTGCTAAG [GTCGCCCCTTA_LTGcore_CA_RTGcore_CT] (site GTCGCCCCTTA) (LTG core: CA, RTG core: CT) | 2.04
40 | GAGTCCATATGGGTTCTAACCTGTTGCGTTA [GAGTCCACTAC_LTGcore_TA_RTGcore_TA] (site GAGTCCACTAC) (LTG core: TA, RTG core: TA) | 0.0207
41 | ACGGGACCTTGGGTTCTAACCTGTTGCAGTT [ACGGGACCTCT_LTGcore_CT_RTGcore_AA] (site ACGGGACCTCT) (LTG core: CT, RTG core: AA) | 0.29
42 | CGAGCCCAATGGGTTCTAACCTGTTGCTGTT [CGAGCCCCTCA_LTGcore_AA_RTGcore_AA] (site CGAGCCCCTCA) (LTG core: AA, RTG core: AA) | 0.0507
43 | GAGGCCTCTTGGGTTCTAACCTGTTGCCATT [GAGGCCTCTTG_LTGcore_CT_RTGcore_AA] (site GAGGCCTCTTG) (LTG core: CT, RTG core: AA) | 0.0215
44 | AGGCGGTCTTGGGTTCTAACCTGTTGCTTTT [AGGCGGTCTAA_LTGcore_CT_RTGcore_AA] (site AGGCGGTCTAA) (LTG core: CT, RTG core: AA) | 0.0668
45 | GAGTCCAGCTGGGTTCTAACCTGTTGCGTGC [GAGTCCACTAC_LTGcore_GC_RTGcore_GC] (site GAGTCCACTAC) (LTG core: GC, RTG core: GC) | 0.174

From the supplement of paper PMC11208160
